Data: paper PMC7340254, “Structure-based screening of binding affinities via small-angle X-ray scattering” (IUCrJ, 2020)

Assays:
[1] = target: T1, histidine-binding protein (HisBP) (Escherichia coli, UniProt P0AEU0); assay: biochemical
Description: Titrations were conducted at fixed protein concentrations to exclude signal-to-noise factors. An initial mass concentration of 2.0 or 4.0 mg ml^−1 was employed in prospective experiments, then scaled to 2.0, 1.0, 0.5 and 0.25 mg ml^−1 in later concentration-variation studies. […] A total of eight beamline experiments were conducted, using the automated sample changing environments available on site, operated in constant-flow mode: three times at ESRF BM29, three at DESY P12, once at Australian Synchrotron SAXS/WAXS and once at Diamond B21. […] Furthermore, experiments at ESRF BM29 and Diamond B21 were carried out on site, while the DESY P12 experiment was carried out by mail-in. For these measurements, samples were prepared by pipetting ligand–protein mixtures onto 96-well plates prior to transport. As for the Australian Synchrotron measurements, apo–HisBP was lyophilized in its final buffer and reconstituted on site using pure H2O and then mixed with the ligands in 96-well plates.
Buffer-subtracted intensities provided from respective synchrotron pipelines were used as starting points for analysis. […] Thus, an intermediate value of 7.2 nm was fixed for all computations involving D max including V R.
This was used to assist in locating data points affected by sample handling errors or measurement failures, along with detectable aggregation. The ideal minimum angle after removal of parasitic scattering is 0.1–0.15 nm^−1, although a more conservative cutoff was used to collectively eliminate residual aggregation. The maximum usable q was determined by visual inspection of noise. The final ranges used across all HisBP beamline sessions were: 0.2–2.0 nm^−1 at 20 µM and below, 0.25–2.5 nm^−1 at 40 µM, and 0.3–3 nm^−1 above 80 µM. The q-ranges for DEBP and GlnBP were set to 0.1–2.8 nm^−1.
A common scattering reference is created per HisBP concentration and per beamline experiment by averaging apo protein replicates after discarding outliers. This reference is used for both V R and χlin computations.
To fit binding curves against metrics, we consider all titrations conducted per protein concentration per beamline experiment as a single set, after removing data points resulting from aggregation, preparation errors or measurement errors. […] Since the two-state binding curve at constant [R] cannot effectively discriminate between K D values much larger or smaller than [R], fitted K D values are limited to within four orders of magnitude of the receptor concentration (cf. Fig. S1). […] Error bars indicate σ of logK D from the ensemble of replicate predictions. For metrics where uncertainty was not computed (V R and V P), the uncertainty was estimated by single-point removal, where K D was recomputed after removal of each titration point. The σ of the resulting replicates are taken as the σ of logK D. To eliminate cases where the fitting process fails due to ill-constrained parameters, replicates were discarded if the fitted apo–holo differences were >3σ from the mean value of all replicates.

[2] = target: T2, glutamine-binding protein (GlnBP) (Escherichia coli, UniProt P0AEQ3); assay: Isothermal titration calorimetry (ITC, this work); parameters: species or system E. coli; conditions: 20°C, read-out: K D (ITC, this work)
T2 construct: Uniprot entry P0AEQ3, residues 23–248; made in house; host or cells: E. coli BL21(DE3)
T2 sequence (P0AEQ3 23-248): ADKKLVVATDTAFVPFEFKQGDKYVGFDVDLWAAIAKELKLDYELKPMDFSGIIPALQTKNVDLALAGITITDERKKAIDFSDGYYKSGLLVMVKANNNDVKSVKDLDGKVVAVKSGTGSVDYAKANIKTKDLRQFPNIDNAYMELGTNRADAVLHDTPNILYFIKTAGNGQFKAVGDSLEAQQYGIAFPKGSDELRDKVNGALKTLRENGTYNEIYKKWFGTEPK
Description: (§1) All ITC measurements were conducted on a Malvern MicroCal PEAQ ITC at 20°C with stirring at 200 rev min^−1 using the same buffer as in SAXS measurements. The cell was initially loaded with 200 µl of 20 µM protein with an initial ligand concentration of 200 µM in the syringe to quantify His:HisBP binding. This was further adjusted in subsequent runs to resolve weaker interactions as necessary.

[3] = target: T1, histidine-binding protein (HisBP); assay: biochemical; remark: listed apart in the source
Description: as §1

[4] = target: T1, histidine-binding protein (HisBP); assay: NMR chemical shift perturbation titration; parameters: Uniprot entry P0AEU0, residues 23–260; His6 tag with TEV cleavage site (N, cleaved yes); made in house; host or cells: E. coli BL21(DE3); species or system E. coli; conditions: HisBP 200 µM, 298 K, chemical shift perturbations; read-out: K D (NMR)
Description: All NMR experiments have been carried out at 298 K on an 800 MHz Bruker Avance III NMR spectrometer equipped with a cryogenic probehead. […] Data were processed with NMRpipe (Delaglio et al., 1995[▸]), analyzed using NMRFAM-Sparky (Lee et al., 2015[▸]) and visualized with Python modules nmrglue and matplotlib (Helmus & Jaroniec, 2013[▸]; Hunter, 2007[▸]).
Backbone assignments of apo- and His-bound HisBP have been derived from BMRB entries 19242 and 19245 (Chu et al., 2013[▸]). The assignment of Arg-bound HisBP is produced by extending the apo-HisBP assignment along titrations, leaving sites in slow exchange unassigned. For affinity computations based on chemical shift perturbations, ^1H and ^15N shifts have been combined to a composite shift δ = [(δH)^2 + (0.2δN)^2]^1/2. The derivation of an overall dissociation constant from chemical shift perturbations follows the work by Williamson (2013[▸]), where the shift in peak position is used to derive free and bound populations without considering peak intensities. The effect of site-specific exchange rates upon peak positions is taken into account (London, 1993[▸]). We discarded residues with either insignificant shifts at saturation (δ < 0.05) or which were in slow exchange such that peak positions alone were no longer informative. […]

GlnBP = target: GlnBP; parameters: method as in Clifton & Jackson (2016); conditions: ref Clifton & Jackson (2016), read-out: K D (ITC, literature); cited from earlier work
[5] = target: T2, glutamine-binding protein (GlnBP); assay: SAXS-based ligand titration; parameters: species or system E. coli; conditions: ESRF, 3.0 × 10^12 photons, GlnBP 80 µM; 'no change' = no significant changes in scattering curves
Description: Their preliminary results have been excluded from this report.

HisBP = target: HisBP; parameters: method as in Paul et al. (2016); conditions: ref Paul et al. (2016), read-out: K D (ITC, literature); cited from earlier work

T1 sequence (P0AEU0 23-260): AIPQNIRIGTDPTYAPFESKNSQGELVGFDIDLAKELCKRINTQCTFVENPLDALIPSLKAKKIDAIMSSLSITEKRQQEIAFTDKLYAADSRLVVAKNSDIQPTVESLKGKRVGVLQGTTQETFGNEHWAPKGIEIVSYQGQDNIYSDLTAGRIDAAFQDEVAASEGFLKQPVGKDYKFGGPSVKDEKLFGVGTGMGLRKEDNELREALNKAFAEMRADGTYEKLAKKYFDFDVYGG

For N=C(N)NCCC[C@H](N)C(=O)O [Arg, arginine], which Kd ([1]; K D fitted to SAXS V R titration curves, AustSynch, 20s exposure, […] 10^13 photons, HisBP 19 µM) is on record?
The Kd was 2800 ± 310 nM.

What about the Kd ([1]; K D fitted to SAXS V R titration curves, AustSynch, 20s exposure, […] 10^13 photons, HisBP 38 µM) of the same compound?
The Kd was 3000 ± 1400 nM.

And the Kd ([1]; K D fitted to SAXS V R titration curves, AustSynch, 20s exposure, […] 10^13 photons, HisBP 76 µM)?
The Kd was 5500 ± 1400 nM.

What about the Kd ([1]; K D fitted to SAXS V R titration curves, DESY, 4s exposure, […] 10^13 photons, HisBP 20 µM) of the same compound?
The Kd was 33000 ± 4500 nM.

And the Kd ([1]; K D fitted to SAXS V R titration curves, DESY, 4s exposure, […] 10^13 photons, HisBP 40 µM)?
The Kd was 74000 ± 19000 nM.

What about the Kd ([1]; K D fitted to SAXS V R titration curves, DESY, 4s exposure, […] 10^13 photons, HisBP 80 µM) of the same compound?
Its Kd is 5900 ± 600 nM.

And the Kd ([1]; K D fitted to SAXS V R titration curves, Diamond, 40s exposure, […] 10^14 photons, HisBP 10 µM)?
The Kd was 370 ± 140 nM.

What about the Kd ([1]; K D fitted to SAXS V R titration curves, Diamond, 40s exposure, […] 10^14 photons, HisBP 20 µM) of the same compound?
The Kd was 920 ± 110 nM.

What about the Kd ([1]; K D fitted to SAXS V R titration curves, Diamond, 40s exposure, […] 10^14 photons, HisBP 40 µM) of the same compound?
The Kd was 4800 ± 480 nM.

And the Kd ([1]; K D fitted to SAXS V R titration curves, Diamond, 40s exposure, […] 10^14 photons, HisBP 80 µM)?
Its Kd is 7300 ± 1900 nM.

What about the Kd ([1]; K D fitted to SAXS V R titration curves, ESRF, 5s exposure, 3.0 × 10^12 photons, HisBP 38 µM) of the same compound?
The Kd was 2000 ± 1900 nM.

And the Kd ([1]; K D fitted to SAXS V R titration curves, ESRF, 5s exposure, 3.0 × 10^12 photons, HisBP 160 µM)?
Its Kd is 710 ± 1000 nM.

What about the Kd ([1]; KD fitted to SAXS Rg curves, AustSynch, 20s exposure, HisBP 19 µM) of the same compound?
The Kd was 7700 ± 2000 nM.

What about the Kd ([1]; KD fitted to SAXS Rg curves, AustSynch, 20s exposure, HisBP 38 µM) of the same compound?
Its Kd is 52 ± 40 nM.

What about the Kd ([1]; KD fitted to SAXS Rg curves, AustSynch, 20s exposure, HisBP 76 µM) of the same compound?
Its Kd is 1600 nM.

What about the Kd ([1]; KD fitted to SAXS Rg curves, DESY, 4s exposure, HisBP 20 µM) of the same compound?
The Kd was 15000 ± 6800 nM.

And the Kd ([1]; KD fitted to SAXS Rg curves, DESY, 4s exposure, HisBP 40 µM)?
The Kd was 150000 ± 52000 nM.

What about the Kd ([1]; KD fitted to SAXS Rg curves, DESY, 4s exposure, HisBP 80 µM) of the same compound?
Its Kd is 27000 ± 7100 nM.

What about the Kd ([1]; KD fitted to SAXS Rg curves, Diamond, 40s exposure, HisBP 20 µM) of the same compound?
The Kd was 810 nM.

And the Kd ([1]; KD fitted to SAXS Rg curves, Diamond, 40s exposure, HisBP 40 µM)?
The Kd was 1500 ± 4400 nM.

And the Kd ([1]; KD fitted to SAXS Rg curves, Diamond, 40s exposure, HisBP 80 µM)?
The Kd was 1100 ± 2500 nM.

And the Kd ([1]; KD fitted to SAXS Rg curves, ESRF, 5s exposure, HisBP 38 µM)?
The Kd was 2600 nM.

What about the Kd ([1]; KD fitted to SAXS Rg curves, ESRF, 5s exposure, HisBP 160 µM) of the same compound?
The Kd was 390 ± 280 nM.

What about the Kd ([1]; KD fitted to SAXS Vc curves, AustSynch, 20s exposure, HisBP 19 µM) of the same compound?
The Kd was 2100 ± 6000 nM.

And the Kd ([1]; KD fitted to SAXS Vc curves, AustSynch, 20s exposure, HisBP 38 µM)?
The Kd was 3700 ± 6600 nM.

And the Kd ([1]; KD fitted to SAXS Vc curves, AustSynch, 20s exposure, HisBP 76 µM)?
The Kd was 2000 nM.

And the Kd ([1]; KD fitted to SAXS Vc curves, DESY, 4s exposure, HisBP 20 µM)?
The Kd was 6300 nM.

And the Kd ([1]; KD fitted to SAXS Vc curves, DESY, 4s exposure, HisBP 80 µM)?
Its Kd is 17 ± 41 nM.

And the Kd ([1]; KD fitted to SAXS Vc curves, Diamond, 40s exposure, HisBP 20 µM)?
The Kd was 6300 nM.

What about the Kd ([1]; KD fitted to SAXS Vc curves, Diamond, 40s exposure, HisBP 80 µM) of the same compound?
The Kd was 38 nM.

What about the Kd ([1]; KD fitted to SAXS Vc curves, ESRF, 5s exposure, HisBP 7.6 µM) of the same compound?
The Kd was 280 ± 720 nM.

What about the Kd ([1]; KD fitted to SAXS Vc curves, ESRF, 5s exposure, HisBP 38 µM) of the same compound?
The Kd was 75 nM.

What about the Kd ([1]; KD fitted to SAXS Vc curves, ESRF, 5s exposure, HisBP 160 µM) of the same compound?
The Kd was 910 nM.

And the Kd ([1]; KD fitted to SAXS χlin. curves, AustSynch, 20s exposure, HisBP 19 µM)?
Its Kd is 11000 ± 7600 nM.

What about the Kd ([1]; KD fitted to SAXS χlin. curves, AustSynch, 20s exposure, HisBP 38 µM) of the same compound?
The Kd was 10000 ± 2000 nM.

What about the Kd ([1]; KD fitted to SAXS χlin. curves, AustSynch, 20s exposure, HisBP 76 µM) of the same compound?
Its Kd is 11000 ± 1400 nM.

And the Kd ([1]; KD fitted to SAXS χlin. curves, DESY, 4s exposure, HisBP 20 µM)?
The Kd was 4100 ± 2100 nM.

And the Kd ([1]; KD fitted to SAXS χlin. curves, DESY, 4s exposure, HisBP 40 µM)?
Its Kd is 140000 ± 42000 nM.

What about the Kd ([1]; KD fitted to SAXS χlin. curves, DESY, 4s exposure, HisBP 80 µM) of the same compound?
Its Kd is 42000 ± 6700 nM.

And the Kd ([1]; KD fitted to SAXS χlin. curves, Diamond, 40s exposure, HisBP 20 µM)?
The Kd was 1400 nM.

And the Kd ([1]; KD fitted to SAXS χlin. curves, Diamond, 40s exposure, HisBP 40 µM)?
The Kd was 23000 ± 7100 nM.

And the Kd ([1]; KD fitted to SAXS χlin. curves, Diamond, 40s exposure, HisBP 80 µM)?
The Kd was 12 ± 20 nM.

What about the Kd ([1]; KD fitted to SAXS χlin. curves, ESRF, 5s exposure, HisBP 7.6 µM) of the same compound?
The Kd was 1900 ± 2000 nM.

And the Kd ([1]; KD fitted to SAXS χlin. curves, ESRF, 5s exposure, HisBP 152 µM)?
Its Kd is 91 nM.

What about the Kd [2] of the same compound?
The Kd was 78900 ± 8600 nM.

And the Kd [3]?
The Kd was 2060 ± 220 nM.

And the Kd [4]?
Its Kd is 560 nM.

And the Kd (GlnBP)?
Its Kd is 93800 ± 7400 nM.

And the “K D derived from V R titration curves (result in words)” value [5]?
Its value is “No change”.

And the Kd (HisBP)?
The Kd was 3000 ± 1000 nM.
